{
  "source": "patent US20260144752A1",
  "about": "“Multilamellar Vesicles and Methods and Uses Thereof” (ChromoLogic LLC, priority 2022, published 2026)",
  "key": {"[1]": {"system": "γ-H2AX+ intestinal crypt cells", "conditions": "mice, 9.25 Gy TBI; cited from earlier work"}, "ROS": {"system": "ROS", "assay": "ROS levels in cells exposed to IR", "assay_type": "cell-based", "conditions": "cells exposed to 5 Gy IR, FIG. 5C", "source_text": "(§1) In various embodiments JP4-039-MLV nanoparticles protect cells from IR-induced oxidative stress. In addition to DNA damage, IR-induced oxidative stress can result in lipid peroxidation, mitochondrial membrane permeability, and an increase in ROS concentration. FIGS. 5A-5C provide exemplary data of an embodiment showing reduction of IR-induced cellular dysregulation."}, "[2]": {"conditions": "stated for comparison; cited from earlier work"}, "lipid peroxidation": {"system": "lipid peroxidation", "assay": "Lipid peroxidation in cells exposed to IR", "assay_type": "cell-based", "conditions": "cells exposed to 5 Gy IR, FIG. 5A", "source_text": "as §1"}, "[3]": {"conditions": "cited from earlier work"}, "[4]": {"conditions": "cited from earlier work", "remark": "listed apart in the source"}, "[5]": {"system": "mitochondrial membrane permeability", "assay": "Mitochondrial membrane permeability in cells exposed to IR", "assay_type": "cell-based", "conditions": "cells exposed to 10 Gy IR, FIG. 5B", "source_text": "as §1"}, "γ-H2AX": {"system": "γ-H2AX", "assay": "IR-induced DNA double strand breaks, γ-H2AX immunohistochemistry in irradiated cells", "assay_type": "cell-based", "conditions": "cells treated prior to irradiation of 0 Gy and 5 Gy, FIGS. 4A-4B", "source_text": "In various embodiments JP4-039-MLVs have the ability to reduce IR-induced DNA double strand breaks (DSBs). IR induces DNA damage resulting in double strand breaks that can result in mitotic failure and cell death. Secondary oxidative stress induces further DNA damage. In response to double strand breaks, the histone H2AX is rapidly phosphorylated, producing γ-H2AX, a standard biomarker of DNA damage. […] FIGS. 4A-4B illustrate exemplary data from an embodiment showing the ability to reduce DNA DSBs. Specifically, FIG. 4A provides confocal images of cells treated with DMSO (control), JP4-039, and JP4-039-MLVs prior to irradiation of 0 Gy and 5 Gy. Cell nuclei are stained with DAPI (blue) and γ-H2AX is visualized by immunohistochemistry (green), while FIG. 4B illustrates relative frequency of γ-H2AX+ cells by counting blue puncta and green puncta."}},
  "data": [
    {"substance": "JP4-039", "values": [
      {"measurement": "number of γ-H2AX+ intestinal crypt cells", "setting": "[1]", "result": "reduce the number of γ-H2AX+ intestinal crypt cells"},
      {"measurement": "ROS levels", "setting": "ROS", "result": "reduced ROS levels"},
      {"measurement": "in vivo half-life", "setting": "[2]", "result": "approximately 6 hours"},
      {"measurement": "levels of lipid peroxidation", "setting": "lipid peroxidation", "result": "reduce levels of lipid peroxidation"},
      {"measurement": "survival following TBI", "setting": "[3]; hematopoietic- or gastrointestinal-ARS-inducing doses of TBI", "result": "increasing survival"},
      {"measurement": "time window of effectiveness relative to irradiation", "setting": "[3]; in vivo radiation survival studies", "result": "effective 24 h prior to 72 h after irradiation"},
      {"measurement": "solubility in an aqueous environment", "setting": "[4]", "result": "very low solubility"},
      {"measurement": "levels of mitochondrial membrane permeability", "setting": "[5]", "result": "reduced levels of mitochondrial membrane permeability"},
      {"measurement": "protection from IR-induced DNA damage (relative frequency of γ-H2AX+ cells)", "setting": "γ-H2AX", "result": "protected cells from IR-induced DNA damage"}
    ]}
  ]
}
